The results in this text go back to patent US8435962B2, “Triacetyl-3-hydroxyphenyladenosine and its use for regulating blood fat” (Institute of Mataria Medica, Chinese Academy of Medical …, priority 2009, dated 2013).

Assay [1] has as its system hyperlipidemia hamsters. The experiment in a line: Serum lipid level in hyperlipidemic hamsters after drug discontinuance (2 weeks). It counts as in vivo, hamster. Particulars: hamsters, 2 mg/kg; 2 weeks after drug discontinuance, high-fat diet continued.
Procedure: (§2) After a week of accommodation, except control group (n=12) all the hamsters (n=72) were fed with high-fat laboratory chow.
(§3) After four weeks high-fat diet modeling, rats were treated with different drugs by intragastric administration. Control animals received an equal volume of vehicle.
(§4) At the end of 4 weeks drug treatment, animals were fasted for 12 hours (10 of each group). The next day, they were anesthetized by intraperitoneal injection of pentobarbitale sodium (45 mg/kg). Blood samples were collected from the abdominal aorta within 15 min, and plasma was separated. Plasma TC, TG, HDL-C, LDL-C, ALT, FFA were detected. Liver and the retroperitoneal fat were separated and weighed, the liver and fat index were calculated. Liver SOD and MDA were detected by kit after homogenized. The left hamsters (10 each group) drug treatment was withdrawn while high-fat diet modeling continued. Two weeks later, blood sample was collected from the orbit and serum TC and TG were detected.
Assay [2] relates to hyperlipidemia rats. The experiment in a line: Effects on hepatic SOD activity and MDA content of hyperlipidemia rats. The assay is classed as in vivo, rat. The conditions noted are these: 2 mg/kg intragastric, 4 weeks. An excerpt:
(§1) Control animals received an equal volume of vehicle.

The test system of assay [3] is hyperlipidemia rats. The assay is described as follows: Effects on liver weight and serum ALT activity of hyperlipidemia rats. Particulars: 2 mg/kg intragastric, 4 weeks.
Procedure: (§5) After a week of accommodation, except control group (20 rat), all the rats (120 rats) were fed with high-fat laboratory chow.
as §3
(§6) At the end of 4 weeks drug treatment, animals were fasted for 12 hours before anesthetizing by intraperitoneal injection of pentobarbitale sodium (45 mg/kg), and anticoagulated by 100 U/kg heparin through caudal vein injection. Blood samples were collected from the abdominal aorta within 15 min, and serum was separated. Serum TC, TG, HDL-C, LDL-C, ALT, FFA were detected. Liver and the fat pad behind the belly were separated and weighed, the liver and retroperitoneal fat were weighed too. […] The left rats (10 rats each group) drug treatment was withdrawn while high-fat diet modeling continued. Two weeks later, blood sample was collected from the orbit, and serum TC, TG were detected.
Assay [4] has as its system hyperlipidemia rats. The experiment in a line: Effects on plasma lipid in hyperlipidemia rats (high-fat diet).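 Further: rats kept on high-fat chow for 4 weeks before dosing, serum taken from abdominal aorta after a 12 h fast at end of treatment, controls given vehicle.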 The assay is classed as in vivo, rat. Particulars: 2 mg/kg intragastric, 4 weeks.
Procedure: as §5, §3, §6
Assay [5] concerns hyperlipidemia hamsters. The assay is described as follows: Effects on hepatic SOD activity and MDA concentration in hyperlipidemic hamsters' livers. The conditions noted are these: 2 mg/kg intragastric, 4 weeks. It counts as in vivo, hamster.
Procedure: as §2, §3, §4
The subject of assay [6] is hyperlipidemia hamsters. The experiment in a line: Effects on plasma lipid in hyperlipidemia hamsters (high-fat diet).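 Further: hamsters given high-fat chow for four weeks, then dosed by gavage, plasma lipids measured in abdominal aortic blood after a 12 h fast, compared with vehicle-treated controls.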 Particulars: 2 mg/kg intragastric, 4 weeks. The assay is classed as in vivo, hamster.
Procedure: as §2, §3, §4
The test system of assay [7] is hyperlipidemia rats. The experiment in a line: Serum lipid of hyperlipidemia rats after withdrawal from drugs for 2 weeks. The assay is classed as in vivo, rat. Particulars: rats, 2 mg/kg; 2 weeks after drug withdrawal, high-fat diet continued.
Procedure: as §5, §3, §6
Assay [8] deals with hyperlipidemia rats. The experiment in a line: Effects on retroperitoneal fat weight of hyperlipidemic rats. The assay is classed as in vivo, rat. The conditions noted are these: hyperlipidemic rats, 2 mg/kg intragastric, 4 weeks.
From the text: as §1

In assay [9] the test system is hyperlipidemia hamsters. The experiment in a line: Effect on retroperitoneal fat of hyperlipidemia hamsters. The assay is classed as in vivo, hamster. Particulars: 2 mg/kg intragastric, 4 weeks.
Procedure: as §2, §3, §4

Consider `CCC(C)(C)C(=O)O[C@H]1C[C@@H](C)C=C2C=C[C@H](C)[C@H](CC[C@@H]3C[C@@H](O)CC(=O)O3)[C@H]21` [Simvastatin, reference compound], for which, in the assay on hyperlipidemia hamsters [1], the TC came to 4.91 ± 1.18 mmol/L and the TG was determined as 4.58 ± 1.01 mmol/L. Further, in the assay with hyperlipidemia rats [2], the hepatic MDA stood at 9.29 ± 2.73 nmol/mg protein and the “hepatic SOD” value was found to be 99.5 ± 20.2 U/g pr. In the assay with hyperlipidemia rats [3] ('rat' in hamster Table 9), this compound yielded a Liver weight of 3.96 ± 0.93 g/100 g body weight. The Liver weight in the assay with hyperlipidemia rats [3] (hyperlipidemia rats) came to 3.96 ± 0.93 g/100 g body weight. In the assay on hyperlipidemia rats [4], this compound gave an FFA of 0.96 ± 0.39 mmol/L, an HDL-C of 0.59 ± 0.13 mmol/L, an HDL/LDL of 0.50 ± 0.16 and an LDL-C of 1.24 ± 0.24 mmol/L. In the assay with hyperlipidemia rats [4], the TC was determined as 2.22 ± 0.36 mmol/L and the TG is reported as 0.76 ± 0.21 mmol/L. In the assay with hyperlipidemia hamsters [5], the hepatic MDA is 4.48 ± 0.96 nmol/mg protein and the “hepatic SOD” value is given as 94.6 ± 38.0 U/g pr. In the assay with hyperlipidemia hamsters [6], this compound gave an HDL-C of 1.12 ± 0.21 mmol/L, an HDL/LDL of 0.45 ± 0.12, an LDL-C of 2.57 ± 0.53 mmol/L and a TC of 4.46 ± 1.63 mmol/L. Further, in the assay on hyperlipidemia hamsters [6], the TG was 3.20 ± 1.70 mmol/L. In the assay with hyperlipidemia rats [7], the TC is on record as 2.14 ± 0.33 mmol/L and the TG stood at 0.94 ± 0.24 mmol/L. For the same compound, the “Fat weight (retroperitoneal fat)” value in the assay on hyperlipidemia rats [8] stood at 0.70 ± 0.28 g/100 g body weight. This compound displayed a retroperitoneal fat in the assay with hyperlipidemia hamsters [9] of 0.97 ± 0.19 g/100g.
